This passage reports LogP and chromatographic logP results from patent US20230165252A1, “ACTIVE COMPOUND COMBINATIONS” (Bayer Aktiengesellschaft, priority 2020, published 2023).

The first series in a line: Measurement of Log P values by HPLC on reversed phase columns (EEC directive 79/831 Annex V.A8), methods [a], [b], [c]. The class given is physicochemical. The following applies: HPLC method [a].
Experimental: Measurement of Log P values as provided herein was performed according to EEC directive 79/831 Annex V.A8 by HPLC (High Performance Liquid Chromatography) on reversed phase columns with the following methods: • ^[a]
With `C=C(C)c1cc(C(=O)NCC(F)(F)c2ccc(C)cc2C)c(Oc2cccc(C(F)(F)F)c2)nn1` [I-222], the LogP is 4.87^[a].

As to `COc1ccc(CCNC(=O)c2cc(Cl)nnc2Oc2cccc(C(F)(F)F)c2)cc1OC` [I-268], the LogP is 3.26^[a]. Consider `O=C(NCC(F)(F)c1ccc(Cl)cc1)c1c(Oc2cccc(C(F)(F)F)c2)nnc(Cl)c1NC1CCCCC1` [I-272], for which the LogP was 4.98^[a].

On to `O=C(NCc1cnc2ccccc2c1)c1cc(Cl)nnc1Oc1cccc(C(F)(F)F)c1` [I-306], for which the LogP is 2.71^[a]. Regarding `O=C(NCCc1ccc(C(F)F)cc1)c1cc(Cl)nnc1Oc1cccc(C(F)(F)F)c1` [I-309], the LogP was 3.78^[a]. `O=C(NCC(F)(F)c1ccc(Br)cc1Cl)c1cc(C2CC2)nnc1Oc1cccc(C(F)(F)F)c1` [I-312]: the LogP is 4.79^[a];.

Consider `O=C(NCC(F)(F)c1ccc(Br)cc1Cl)c1cc(Cl)nnc1Oc1cccc(C(F)(F)F)c1F` [I-315], for which the LogP was 4.71^[a]. As to `Cc1ccc(C(F)(F)CNC(=O)c2cc(-c3ccncc3)nnc2Oc2cccc(C(F)(F)F)c2)c(C)c1` [I-316], the LogP is 3.65^[a]. Consider `Cc1c(Cl)nnc(Oc2cccc(C(F)(F)F)c2)c1C(=O)NCC(F)(F)c1ccc(Cl)cc1Cl` [I-338], for which the LogP is 4.43^[a]. Consider `Cc1ccc(CCNC(=O)c2cc(Cl)nnc2Oc2cccc(C(F)(F)F)c2)c(-c2nccn2C)c1` [I-341], for which the LogP is 1.85^[a]. In the case of `O=C(NCC(F)(F)c1ccc(C2CC2)cc1Cl)c1cc(Cl)nnc1Oc1cccc(C(F)(F)F)c1` [I-360], the LogP was 4.58^[a]. On to `O=C(NCc1cncc2ccccc12)c1cc(Cl)nnc1Oc1cccc(C(F)(F)F)c1` [I-379], for which the LogP was 2.14^[a]. For the compound `Cc1cc(Br)ccc1C(F)(F)CNC(=O)c1cc(Cl)nnc1Oc1cccc(C(F)(F)F)c1` [I-404], the LogP was 4.57^[a]. Regarding `Cc1ccc(C(F)(F)CNC(=O)c2cc(C)nnc2Oc2cccc(C(F)(F)F)c2)c(C)c1` [I-411], the LogP is 4.00^[a]. For the compound `O=C(NCC(F)(F)c1ccc(C(F)(F)F)cc1Cl)c1cc(Cl)nnc1Oc1cccc(C(F)(F)F)c1` [I-418], the LogP is 4.45^[a].

The series is the same for the next values; noted with them: HPLC method [b].
`Cc1cc(C(=O)NCCc2ccc(C(F)F)cn2)c(Oc2cccc(C3CC3)c2)nn1` [I-282]: the LogP is 2.82^[b].

The same series, now with this note: HPLC on reversed phase column, method [a].
Take `COc1ccc(C(F)(F)CNC(=O)c2cc(Cl)nnc2Oc2cccc(C(F)(F)F)c2)c(Cl)c1` [I-007]: the LogP is 4.00^[a]. As for `Cc1cc(C(=O)NCC(F)(F)c2ccc(C3CCCCC3)cc2Cl)c(Oc2cccc(C(F)(F)F)c2)nn1` [I-018], the LogP is 5.44^[a].

Regarding `Cc1cc(C(=O)NCC(F)(F)c2ccc(C3CCC3)cc2Cl)c(Oc2cccc(C(F)(F)F)c2)nn1` [I-028], the LogP is 4.83^[a].

Take `COc1ccc(CCNC(=O)c2cc(Cl)nnc2Oc2cccc(C(F)(F)F)c2)cc1` [I-036]: the LogP was 3.61^[a].

In the case of `O=C(NCCc1ncccc1C(F)(F)F)c1cc(Cl)nnc1Oc1cccc(C(F)(F)F)c1` [I-037], the LogP was 3.65^[a]. In the case of `Cc1ccc(C(F)(F)CNC(=O)c2c(Oc3cccc(C(F)(F)F)c3)nnc(Cl)c2NCC(C)(C)O[Si](C)(C)C)c(C)c1` [I-064], the LogP is 6.32^[a]. For the compound `O=C(NCC(F)(F)c1ccc(F)cc1F)c1cc(Cl)nnc1Oc1cccc(C(F)(F)F)c1` [I-067], the LogP was 3.75^[a]. `O=C(NCCc1ccc(C(F)(F)F)cn1)c1cc(Cl)nnc1Oc1cccc(C(F)(F)F)c1` [I-068]: the LogP is 3.53^[a].

As for `Cc1ccc(C(F)(F)CNC(=O)c2c(Oc3cccc(C(F)(F)F)c3)nnc(Cl)c2[S+](C)[O-])c(C)c1` (stereo not shown) [I-072], the LogP was 3.75^[a]. Still for that read-out and setting: for `CC(CNC(=O)c1cc(Cl)nnc1Oc1cccc(C(F)(F)F)c1)c1ccc(Cl)cc1Cl` (stereo not shown) [I-075] the value was 4.68^[a]. On the same count and under the same terms, for `CC(=O)N(C)Cc1c(Cl)nnc(Oc2cccc(C(F)(F)F)c2)c1C(=O)NCCc1ccc(C)cc1C` [I-077] the value was 3.65^[a]; for `O=C(NCC(F)(F)c1ccc(SCC(F)(F)F)cc1Cl)c1cc(Cl)nnc1Oc1cccc(C(F)(F)F)c1` [I-087], 4.45^[a]. On the same count and under the same terms, then `O=C(NCC(F)(F)c1ccc(Cl)cn1)c1cc(Cl)nnc1Oc1cccc(C(F)(F)F)c1` [I-108], with 3.65^[a]. Take `O=C(NCC(F)(F)c1ccc(Cl)cn1)c1cc(Cl)nnc1Oc1cccc(C(F)F)c1` [I-158]: the LogP is 3.32^[a]. Consider `Cc1ccc(C(F)(F)CNC(=O)c2cc(Cl)nnc2Oc2cncc(Br)c2)c(C)c1` [I-173], for which the LogP was 3.78^[a]. As for `CCOc1c(Cl)nnc(Oc2cccc(C(F)(F)F)c2)c1C(=O)NCC(F)(F)c1ccc(C)cc1C` [I-181], the LogP was 4.68^[a]. On to `Cc1cnnc(Oc2cccc(C(F)(F)F)c2)c1C(=O)NCC(F)(F)c1ccc(Cl)cc1Cl` [I-183], for which the LogP is 3.78^[a]. As to `Cc1c(Cl)nnc(Oc2cccc(C3CC3)c2F)c1C(=O)NCCc1ccc(Cl)cc1Cl` [I-215], the LogP was 4.58^[a]. For `O=C(NCC(F)(F)c1cc(Cl)sc1Cl)c1cc(Cl)nnc1Oc1cccc(C(F)(F)F)c1` [I-825], the LogP was 4.73^[a].

Staying with this series, now noted: method [a].
`CCSc1c(Cl)nnc(Oc2cccc(C(F)(F)F)c2)c1C(=O)NCC(F)(F)c1ccc(C)cc1C` [I-442]: the LogP is 4.87^[a]. `O=C(NCC(F)(F)c1ccc(Cl)cc1Br)c1cc(Cl)nnc1Oc1cccc(C(F)(F)F)c1` [I-478]: the LogP was 4.68^[a].

As for `COc1ccc(CCNC(=O)c2c(Oc3cccc(C(F)(F)F)c3)nnc(Cl)c2C)c(OC)c1` [I-500], the LogP is 3.65^[a]. On the same count and under the same terms, then `Cc1ccc(C(F)(F)CNC(=O)c2cc(-c3cn[nH]c3)nnc2Oc2cccc(C(F)(F)F)c2)c(C)c1` [I-515], with 3.65^[a]; and `Cc1cc(C(=O)NCCc2ccc(C(F)F)cn2)c(Oc2cccc(C(F)(F)F)c2)nn1` [I-525], with 2.57^[a];. As for `O=C(NCCc1ccc(-c2ccncc2)cc1)c1cc(Cl)nnc1Oc1cccc(C(F)(F)F)c1` [I-542], the LogP is 2.13^[a]. As to `Cc1cc(C(=O)NCCc2cccc3oc(C)nc23)c(Oc2cccc(C(F)(F)F)c2)nn1` [I-543], the LogP is 2.96^[a]. On to `O=C(NCCc1ccc2c(c1)CCO2)c1cc(Cl)nnc1Oc1cccc(C(F)(F)F)c1` [I-551], for which the LogP is 3.65^[a]. `O=C(NCc1cccc2cnccc12)c1cc(Cl)nnc1Oc1cccc(C(F)(F)F)c1` [I-559]: the LogP is 2.14^[a].

As to `CCc1cccc(Oc2nnc(Cl)cc2C(=O)NCC(F)(F)c2ccc(C)cc2C)c1` [I-570], the LogP is 4.68^[a]. On to `O=C(NCCc1ccc2c(c1)OCCO2)c1cc(Cl)nnc1Oc1cccc(C(F)(F)F)c1` [I-573], for which the LogP is 3.53^[a]. As for `C#Cc1cc(C(=O)NCC(F)(F)c2ccc(C)cc2C)c(Oc2cccc(C(F)(F)F)c2)nn1` [I-577], the LogP is 4.31^[a]. Regarding `O=C(NCC(F)(F)c1ccc(Cl)cc1Cl)c1cc(Cl)nnc1Oc1cccc(C2CC2)c1F` [I-598], the LogP was 4.71^[a]. On the same count and under the same terms, then `Cc1ccc(C2(CNC(=O)c3cc(Cl)nnc3Oc3cccc(C(F)(F)F)c3)CC2)cc1` [I-601], with 4.58^[a]. Consider `O=C(NCC(F)(F)Oc1ccc(C(F)(F)F)cc1Cl)c1cc(Cl)nnc1Oc1cccc(C(F)(F)F)c1` [I-633], for which the LogP is 4.58^[a].

For the compound `O=C(NCCc1ncc(Cl)cn1)c1cc(Cl)nnc1Oc1cccc(C(F)(F)F)c1` [I-635], the LogP is 3.05^[a]. On the same count and under the same terms, then `COCCc1c(C2CC2)nnc(Oc2cccc(C(F)(F)F)c2)c1C(=O)NCC(F)(F)c1ccc(C)cc1C` [I-636], with 4.57^[a]. As to `Cc1c(C2CC2)nnc(Oc2cccc(C(F)(F)F)c2)c1C(=O)NCC(F)(F)c1ccc(Cl)cc1Cl` [I-642], the LogP is 4.43^[a]. As to `Cc1ccc(C(F)(F)CNC(=O)c2c(Oc3cccc(C(F)(F)F)c3)nnc(C3CC3)c2NC2CC2)c(C)c1` [I-650], the LogP was 4.10^[a]. Still for that read-out and setting: then `Cc1ccc(C(F)(F)CNC(=O)c2cc(CCC#N)nnc2Oc2cccc(C(F)(F)F)c2)c(C)c1` [I-662], with 3.78^[a]; and `C=CCOc1c(Cl)nnc(Oc2cccc(C(F)(F)F)c2)c1C(=O)NCC(F)(F)c1ccc(C)cc1C` [I-684], with 4.87^[a]; and `Cc1cnn(CCNC(=O)c2cc(C)nnc2Oc2cccc(C(F)(F)F)c2)c1` [I-691], with 2.58^[a]. Turning to `CON(CCc1ccc(Cl)cc1Cl)C(=O)c1c(Oc2cccc(C3CC3)c2F)nnc(Cl)c1C` [I-739], the LogP was 5.36^[a].

On to `CNc1c(Cl)nnc(Oc2cccc(C3CC3)c2F)c1C(=O)NCCc1ccc(Cl)cc1Cl` [I-757], for which the LogP was 4.09^[a]. `Cc1ccc(C(F)(F)CNC(=O)c2cc(Cl)nnc2Oc2ccc3[nH]ccc3c2)c(C)c1` [I-769]: the LogP was 3.78^[a]. Still for that read-out and setting: for `C=C(C)OC(=O)N(CC(F)(F)c1ccc(C)cc1C)C(=O)c1cc(Cl)nnc1Oc1cccc(C(F)(F)F)c1` [I-785] the value was 5.51^[a].

For `COCCc1cc(C(=O)NCC(F)(F)c2ccc(C)cc2C)c(Oc2cccc(C(F)(F)F)c2)nn1` [I-796], the LogP was 4.00^[a]. Still for that read-out and setting: then `Cc1ccc(C(F)(F)CNC(=O)c2cc(Cc3ccccc3)nnc2Oc2cccc(C(F)(F)F)c2)c(C)c1` [I-797], with 4.95^[a]. On to `Cc1ccc(C(F)(F)CNC(=O)c2cc(CC3CCC3)nnc2Oc2cccc(C(F)(F)F)c2)c(C)c1` [I-798], for which the LogP is 5.02^[a]. As to `Cc1ccc(C(F)(F)CNC(=O)c2c(Oc3cccc(C(F)(F)F)c3)nnc(Cl)c2NCCC2CC2)c(C)c1` [I-809], the LogP was 4.95^[a].

Still in this series, the particulars now being: reversed-phase HPLC column, HPLC on reversed phase column, method [a].
As usually defined, the chromatographic logP is lipophilicity estimated from chromatographic retention. The low end stands for a more hydrophilic compound, the high end for a more lipophilic compound. With `Cc1ccc(C(F)(F)CNC(=O)c2c(Oc3cccc(C4CC4)c3F)nnc(Cl)c2C)c(Br)c1` [Compound I-840, N-[2-(2-bromo-4-methylphenyl)-2,2-difluoroethyl]-6-chloro-3-(3-cyclopropyl-2-fluoro-phenoxy)-5-methylpyridazine-4-carboxamide], the chromatographic logP worked out at 4.57.

Still in this series, the particulars now being: reversed-phase HPLC column, method [a].
The compound `Cc1ccc(C(F)(F)CNC(=O)c2c(Oc3cccc(Cl)c3)nnc(Cl)c2C)c(C)c1` [Compound I-790, 6-chloro-3-(3-chlorophenoxy)-N-[2-(2,4-dimethylphenyl)-2,2-difluoro-ethyl]-5-methyl-pyridazine-4-carboxamide] returned a chromatographic logP of 4.27.
